Data as given in ChEMBL document CHEMBL2057199, “Development of novel M1 antagonist scaffolds through the continued optimization of the MLPCN probe ML012” (Bioorg Med Chem Lett, 2012).
Activity calls are given as the source filed them. The rule behind the calls is not given here.

Columns and labels:
[1] = biological target: T1, Muscarinic acetylcholine receptor M1 (Homo sapiens) (UniProt P11229); experiment: Antagonist activity at human muscarinic M1 receptor expressed in CHO cells assessed as inhibition of acetylcholine-induced calcium mobilization at 30 uM measured after 15 mins by fluorescence analysis; assay type: functional, cell-based; parameters: scale not given: the % may be the effect or the level left
T1 sequence (whole entry): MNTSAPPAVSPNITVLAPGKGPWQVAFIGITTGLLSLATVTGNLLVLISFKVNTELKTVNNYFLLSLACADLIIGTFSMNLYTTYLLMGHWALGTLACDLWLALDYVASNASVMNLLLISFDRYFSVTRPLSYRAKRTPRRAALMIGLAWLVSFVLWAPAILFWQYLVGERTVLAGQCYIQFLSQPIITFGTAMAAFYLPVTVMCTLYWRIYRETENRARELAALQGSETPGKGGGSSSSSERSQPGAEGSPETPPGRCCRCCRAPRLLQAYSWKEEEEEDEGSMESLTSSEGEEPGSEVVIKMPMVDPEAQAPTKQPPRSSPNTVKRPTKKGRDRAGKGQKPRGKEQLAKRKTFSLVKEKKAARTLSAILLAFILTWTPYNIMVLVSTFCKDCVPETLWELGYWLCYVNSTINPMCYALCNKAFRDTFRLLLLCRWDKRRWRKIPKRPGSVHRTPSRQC

[2] = biological target: T2, Muscarinic acetylcholine receptor M1 (Homo sapiens, UniProt P11229); experiment: (§1) Antagonist activity at human muscarinic M1 receptor expressed in CHO cells assessed as inhibition of acetylcholine-induced calcium mobilization by fluorescence analysis; assay type: functional, cell-based
T2 sequence (P11229 whole entry): T1 sequence (whole entry)

[3] = biological target: T3, Muscarinic acetylcholine receptor M2 (Homo sapiens, UniProt P08172); experiment: Antagonist activity at human muscarinic M2 receptor assessed as inhibition of acetylcholine-induced calcium mobilization; assay type: functional
T3 sequence (P08172 whole entry): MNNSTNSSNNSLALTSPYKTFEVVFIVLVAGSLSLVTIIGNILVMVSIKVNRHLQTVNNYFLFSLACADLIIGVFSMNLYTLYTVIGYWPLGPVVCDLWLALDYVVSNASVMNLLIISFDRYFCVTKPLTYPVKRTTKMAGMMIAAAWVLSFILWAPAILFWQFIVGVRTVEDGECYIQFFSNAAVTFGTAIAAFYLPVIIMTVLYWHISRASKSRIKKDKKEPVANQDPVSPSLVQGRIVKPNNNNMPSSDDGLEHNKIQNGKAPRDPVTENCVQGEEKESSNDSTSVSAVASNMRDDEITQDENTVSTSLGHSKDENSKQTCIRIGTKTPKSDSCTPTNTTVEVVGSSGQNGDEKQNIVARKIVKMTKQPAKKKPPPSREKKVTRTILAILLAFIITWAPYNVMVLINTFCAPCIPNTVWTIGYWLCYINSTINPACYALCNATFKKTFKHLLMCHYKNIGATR

[4] = biological target: T4, Muscarinic acetylcholine receptor M5 (Homo sapiens, UniProt P08912); experiment: Antagonist activity at human muscarinic M5 receptor assessed as inhibition of acetylcholine-induced calcium mobilization; assay type: functional
T4 sequence (P08912 whole entry): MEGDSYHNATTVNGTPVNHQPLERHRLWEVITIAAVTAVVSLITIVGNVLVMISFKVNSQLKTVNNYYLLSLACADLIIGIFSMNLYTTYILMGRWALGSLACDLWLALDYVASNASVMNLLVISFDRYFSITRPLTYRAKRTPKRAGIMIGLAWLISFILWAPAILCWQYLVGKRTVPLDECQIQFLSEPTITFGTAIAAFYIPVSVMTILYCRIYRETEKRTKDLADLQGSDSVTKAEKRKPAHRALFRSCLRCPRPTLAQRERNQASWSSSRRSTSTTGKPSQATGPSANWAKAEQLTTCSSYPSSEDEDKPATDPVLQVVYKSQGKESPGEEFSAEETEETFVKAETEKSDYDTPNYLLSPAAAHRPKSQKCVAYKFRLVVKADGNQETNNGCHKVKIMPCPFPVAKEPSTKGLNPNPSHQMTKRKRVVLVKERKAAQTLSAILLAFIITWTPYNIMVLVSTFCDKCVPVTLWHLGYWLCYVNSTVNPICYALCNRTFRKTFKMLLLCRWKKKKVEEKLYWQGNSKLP

[5] = biological target: Muscarinic acetylcholine receptor M3 (Homo sapiens, UniProt P20309); experiment: Antagonist activity at human muscarinic M3 receptor assessed as inhibition of acetylcholine-induced calcium mobilization; assay type: functional
[6] = biological target: T5, Muscarinic acetylcholine receptor M4 (Homo sapiens, UniProt P08173); experiment: Antagonist activity at human muscarinic M4 receptor assessed as inhibition of acetylcholine-induced calcium mobilization; assay type: functional
T5 sequence (P08173 whole entry): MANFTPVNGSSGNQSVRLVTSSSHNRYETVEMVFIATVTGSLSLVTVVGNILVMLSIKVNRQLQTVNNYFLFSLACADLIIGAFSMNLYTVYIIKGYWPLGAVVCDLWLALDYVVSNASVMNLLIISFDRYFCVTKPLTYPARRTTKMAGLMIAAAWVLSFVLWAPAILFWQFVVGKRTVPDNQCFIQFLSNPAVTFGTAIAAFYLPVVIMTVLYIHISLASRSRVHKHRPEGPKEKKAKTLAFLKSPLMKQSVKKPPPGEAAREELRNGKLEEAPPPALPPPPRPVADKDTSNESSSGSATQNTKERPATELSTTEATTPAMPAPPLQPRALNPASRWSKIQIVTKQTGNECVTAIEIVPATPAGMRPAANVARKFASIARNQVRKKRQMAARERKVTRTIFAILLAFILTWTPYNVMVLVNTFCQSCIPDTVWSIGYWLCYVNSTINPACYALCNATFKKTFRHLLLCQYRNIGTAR

[7] = biological target: T1, Muscarinic acetylcholine receptor M1 (Homo sapiens); experiment: Displacement of [3H]NMS from human muscarinic M1 receptor
[8] = biological target: T1, Muscarinic acetylcholine receptor M1 (Homo sapiens); experiment: Antagonist activity at human muscarinic M1 receptor assessed as rightward shift in acetylcholine concentration response curve; assay type: functional
[9] = biological target: T1, Muscarinic acetylcholine receptor M1 (Homo sapiens); experiment: as §1; assay type: functional, cell-based

Sequence of Muscarinic acetylcholine receptor M3 (P20309 whole entry): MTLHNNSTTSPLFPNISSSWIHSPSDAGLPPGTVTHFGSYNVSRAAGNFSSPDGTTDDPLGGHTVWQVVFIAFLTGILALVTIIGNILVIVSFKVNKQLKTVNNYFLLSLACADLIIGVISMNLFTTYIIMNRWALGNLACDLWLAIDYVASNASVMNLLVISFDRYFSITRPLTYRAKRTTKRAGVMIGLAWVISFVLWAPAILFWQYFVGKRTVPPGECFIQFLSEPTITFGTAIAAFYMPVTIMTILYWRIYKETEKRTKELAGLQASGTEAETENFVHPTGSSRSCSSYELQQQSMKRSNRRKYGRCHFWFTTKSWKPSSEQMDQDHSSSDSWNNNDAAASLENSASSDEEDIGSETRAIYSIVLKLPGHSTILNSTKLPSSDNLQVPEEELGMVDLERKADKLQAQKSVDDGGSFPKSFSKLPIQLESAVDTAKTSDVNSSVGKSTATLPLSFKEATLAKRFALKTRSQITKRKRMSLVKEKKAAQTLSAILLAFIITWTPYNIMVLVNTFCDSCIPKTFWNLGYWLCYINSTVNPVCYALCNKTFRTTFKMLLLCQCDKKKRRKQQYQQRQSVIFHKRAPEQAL

| Activity [1] [%] | IC50 ([2]; read-out: IC50) [nM] | SMILES | further results |
| --- | --- | --- | --- |
| 20.6 | > 10000 | COc1ccc(S(=O)(=O)N2CC(C(=O)N3CCN(c4ccncc4)CC3)C2)cn1 | – |
| 38.5 | > 10000 | O=C(C1CN(S(=O)(=O)c2ccc(Cl)cn2)C1)N1CCN(c2ccncc2)CC1 | – |
| 8 | – | O=C(C1CN(S(=O)(=O)c2ccc3ncccc3c2)C1)N1CCN(c2ccncc2)CC1 | – |
| 4.7 | 690 | Cc1cc(N2CCN(C(=O)C3CN(S(=O)(=O)c4cccc5cnccc45)C3)CC2)cc(C)n1 | – |
| 14.8 | – | Cc1cc2c(S(=O)(=O)N3CC(C(=O)N4CC5CN(c6ccncc6)CC5C4)C3)cccc2cn1 (stereo not drawn) | – |
| 15.3 | 2300 | Cc1noc(C)c1S(=O)(=O)N1CC(C(=O)N2CCN(c3ccncc3)CC2)C1 | – |
| 9.8 | – | Cc1cc2c(S(=O)(=O)N3CC(C(=O)N4CCN(c5ccncc5)CC4)C3)cccc2cn1 | – |
| 2.7 | – | O=C(C1CN(S(=O)(=O)c2cccc3cnccc23)C1)N1CCN(c2ccncc2)CC1 | IC50 [3]: > 10 µM; IC50 [4]: > 10 µM; IC50 [5]: > 10 µM; IC50 [6]: > 10 µM |
| 10.5 | 2300 | O=C(C1CN(S(=O)(=O)c2ccc3occc3c2)C1)N1CCN(c2ccncc2)CC1 | – |
| 4.9 | 370 | O=C(C1CN(S(=O)(=O)c2cccnc2)C1)N1CCN(c2ccncc2)CC1 | – |
| 12.7 | 2500 | Cc1nc(C(F)(F)F)c(S(=O)(=O)N2CC(C(=O)N3CCN(c4ccncc4)CC3)C2)s1 | – |
| 25.8 | > 10000 | O=C(C1CN(S(=O)(=O)c2cccc3ncccc23)C1)N1CC2CN(c3ccncc3)CC2C1 (stereo not drawn) | – |
| 12.3 | 1200 | Cn1cc(S(=O)(=O)N2CC(C(=O)N3CCN(c4ccncc4)CC3)C2)cn1 | – |
| 10.1 | 2200 | O=C(C1CN(S(=O)(=O)c2cccc3nsnc23)C1)N1CCN(c2ccncc2)CC1 | IC50 ([2]; read-out: pIC50 (converted)): 2090 nM |
| 13.5 | 1900 | O=C(C1CN(S(=O)(=O)c2cccc3c2OCO3)C1)N1CC2CN(c3ccncc3)CC2C1 (stereo not drawn) | – |
| 40.7 | > 10000 | O=C(C1CN(S(=O)(=O)c2ccc(C(F)(F)F)nc2)C1)N1CCN(c2ccncc2)CC1 | – |
| 18.9 | 3200 | O=C(C1CN(S(=O)(=O)c2cccc(F)c2)C1)N1CC2CN(c3ccncc3)CC2C1 (stereo not drawn) | – |
| 9.5 | 1700 | O=C(C1CN(S(=O)(=O)c2cccc(F)c2)C1)N1CCN(c2ccncc2)CC1 | – |
| 3.6 | 130 | O=C(C1CN(S(=O)(=O)c2ccc3c(c2)CCO3)C1)N1CCN(c2ccncc2)CC1 | – |
| 8.2 | 1300 | O=C(C1CN(S(=O)(=O)c2cccnc2Cl)C1)N1CCN(c2ccncc2)CC1 | – |

The next lines start with the compound.

| SMILES | Activity [1] [%] | IC50 ([2]; read-out: IC50) [nM] | further results |
| --- | --- | --- | --- |
| Cc1cc(N2CCN(C(=O)C3CN(S(=O)(=O)c4cccc5cnccc45)C3)CC2)ccn1 | 3.1 | 110 | – |
| O=C(C1CN(S(=O)(=O)c2cccc3nsnc23)C1)N1CC2CN(c3ccncc3)CC2C1 (stereo not drawn) | 16.2 | – | – |
| O=C(C1CN(S(=O)(=O)c2cccc(Cl)c2Cl)C1)N1CCN(c2ccncc2)CC1 | 3.5 | 840 | – |
| O=C(C1CN(S(=O)(=O)c2cccc3nonc23)C1)N1CC2CN(c3ccncc3)CC2C1 (stereo not drawn) | 12.6 | 2000 | – |
| O=C(C1CN(S(=O)(=O)c2cccc(Cl)c2)C1)N1CCN(c2ccncc2)CC1 | 20.7 | – | – |
| O=C(C1CN(S(=O)(=O)c2cccc3c(Cl)nc(Cl)cc23)C1)N1CCN(c2ccncc2)CC1 | 12.7 | – | – |
| O=C(C1CN(S(=O)(=O)c2cccnc2Cl)C1)N1CC2CN(c3ccncc3)CC2C1 (stereo not drawn) | 9.9 | 1500 | – |
| O=C(C1CN(S(=O)(=O)c2cccc3cnc(Cl)cc23)C1)N1CCN(c2ccncc2)CC1 | 6 | 1600 | – |
| O=C(C1CN(S(=O)(=O)c2ccc3c(c2)OCO3)C1)N1CCN(c2ccncc2)CC1 | 5.3 | – | Activity [7]: Active; Activity [8]: Active; inhibition [9]: Dose-dependent effect |
| O=C(C1CCN(S(=O)(=O)c2cccc3nsnc23)CC1)N1CCN(c2ccncc2)CC1 | – | – | IC50 ([2]; cho): Not Active |
| Cc1cnccc1N1CCN(C(=O)C2CN(S(=O)(=O)c3cccc4cnccc34)C2)CC1 | 7.3 | 510 | – |
| O=C(C1CCN(S(=O)(=O)c2cccc3nsnc23)C1)N1CCN(c2ccncc2)CC1 (racemic) | 47.1 | > 10000 | – |
| O=C(C1CN(S(=O)(=O)c2cccc(Cl)c2F)C1)N1CCN(c2ccncc2)CC1 | 11.4 | – | – |
| O=C(C1CCCN(S(=O)(=O)c2cccc3nsnc23)C1)N1CCN(c2ccncc2)CC1 (racemic) | 33.4 | > 10000 | – |
| O=C(C1CN(S(=O)(=O)c2ccccc2OC(F)(F)F)C1)N1CCN(c2ccncc2)CC1 | 8.4 | 2500 | – |
| O=C(C1CN(S(=O)(=O)c2cccc3cnccc23)C1)N1CCN(c2ccncn2)CC1 | 7.3 | – | – |
| O=C(C1CN(S(=O)(=O)c2cccc3ncccc23)C1)N1CCN(c2ccncc2)CC1 | 8.8 | – | – |
| O=C(C1CN(S(=O)(=O)c2cccc(Cl)c2Cl)C1)N1CC2CN(c3ccncc3)CC2C1 (stereo not drawn) | 6.6 | – | – |
| O=C(C1CN(S(=O)(=O)c2cccc3c(Cl)nccc23)C1)N1CCN(c2ccncc2)CC1 | 3.5 | 740 | – |
| Cc1cc(S(=O)(=O)N2CC(C(=O)N3CCN(c4ccncc4)CC3)C2)cnc1Cl | 4.9 | – | – |
| O=C(C1CN(S(=O)(=O)c2ccc(Cl)nc2)C1)N1CCN(c2ccncc2)CC1 | 5.7 | 500 | – |
| O=C(C1CN(S(=O)(=O)c2cccc3cnccc23)C1)N1CCN(c2ccnc(Cl)c2)CC1 | 3.6 | 180 | – |
| O=C(C1CN(S(=O)(=O)c2ccc3cn[nH]c3c2)C1)N1CCN(c2ccncc2)CC1 | 33 | > 10000 | – |
| Cc1ccnc(S(=O)(=O)N2CC(C(=O)N3CCN(c4ccncc4)CC3)C2)c1 | 41.3 | > 10000 | – |
| O=C(C1CN(S(=O)(=O)c2cccc3nonc23)C1)N1CCN(c2ccncc2)CC1 | – | 430 | – |
